Data as given in patent US10004732B2 (Novartis AG, priority 2014, dated 2018).
Read-outs that look alike come from different tables or passages of the source.

Key:
[1] = Microsomal clearance assay (M)
Protocol: The experiments were performed in 96-well glass plates at 37° C. on an automated Tecan EVO platform. Test compounds at a concentration of 10 mM in pure DMSO were diluted 1:1000 in water to 10 μM. […] Reactions were initiated by the addition of 150 μL of a cofactor solution containing 2 mM NADPH.

PI 3-kinase alpha = PI 3-kinase alpha (Homo sapiens, UniProt P42336); assay: Kinase Glo Luminescent Kinase Assay (Kglo), assay A; assay type: biochemical; settings: read-out: Assay A PI3Kα IC50
PI 3-kinase beta = PI 3-kinase beta (Homo sapiens, UniProt P42338); assay: Kinase Glo Luminescent Kinase Assay (Kglo), assay B; assay type: biochemical; settings: read-out: Assay B PI3Kβ IC50
Vps34 = Vps34 (Homo sapiens, UniProt Q8NEB9); assay: Kinase Glo Luminescent Kinase Assay (Kglo), assay C; assay type: biochemical; settings: read-out: Assay C VPS34 IC50
Chain of Vps34 (Q8NEB9 whole entry, species assumed): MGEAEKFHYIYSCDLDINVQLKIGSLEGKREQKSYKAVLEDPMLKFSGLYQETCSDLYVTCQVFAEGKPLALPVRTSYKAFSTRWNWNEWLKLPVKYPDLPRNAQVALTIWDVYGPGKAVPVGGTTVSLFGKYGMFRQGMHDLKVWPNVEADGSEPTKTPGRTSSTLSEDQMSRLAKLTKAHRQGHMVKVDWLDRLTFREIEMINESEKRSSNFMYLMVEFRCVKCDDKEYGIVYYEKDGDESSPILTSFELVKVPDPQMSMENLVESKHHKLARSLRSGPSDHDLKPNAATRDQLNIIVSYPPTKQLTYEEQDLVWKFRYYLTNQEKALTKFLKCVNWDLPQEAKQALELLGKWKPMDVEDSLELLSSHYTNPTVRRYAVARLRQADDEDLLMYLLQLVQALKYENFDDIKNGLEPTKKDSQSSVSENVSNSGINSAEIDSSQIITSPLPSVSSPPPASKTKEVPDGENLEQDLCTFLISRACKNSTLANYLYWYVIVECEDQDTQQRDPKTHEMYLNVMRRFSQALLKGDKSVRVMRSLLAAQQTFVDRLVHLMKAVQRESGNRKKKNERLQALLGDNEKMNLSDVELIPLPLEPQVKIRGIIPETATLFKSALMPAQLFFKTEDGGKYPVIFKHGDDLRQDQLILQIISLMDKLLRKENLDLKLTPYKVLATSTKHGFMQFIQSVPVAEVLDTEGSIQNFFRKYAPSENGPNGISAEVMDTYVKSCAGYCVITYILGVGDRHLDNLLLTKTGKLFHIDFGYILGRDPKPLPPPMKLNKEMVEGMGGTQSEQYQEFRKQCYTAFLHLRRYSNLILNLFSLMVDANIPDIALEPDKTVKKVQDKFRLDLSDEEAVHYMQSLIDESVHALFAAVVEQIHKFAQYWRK

PI 4-kinase beta = PI 4-kinase beta (Homo sapiens, UniProt Q9UBF8); assay: Kinase Glo Luminescent Kinase Assay (Kglo), assay D; assay type: biochemical; settings: read-out: Assay D PI4Kβ IC50
Chain of PI 4-kinase beta (Q9UBF8 whole entry): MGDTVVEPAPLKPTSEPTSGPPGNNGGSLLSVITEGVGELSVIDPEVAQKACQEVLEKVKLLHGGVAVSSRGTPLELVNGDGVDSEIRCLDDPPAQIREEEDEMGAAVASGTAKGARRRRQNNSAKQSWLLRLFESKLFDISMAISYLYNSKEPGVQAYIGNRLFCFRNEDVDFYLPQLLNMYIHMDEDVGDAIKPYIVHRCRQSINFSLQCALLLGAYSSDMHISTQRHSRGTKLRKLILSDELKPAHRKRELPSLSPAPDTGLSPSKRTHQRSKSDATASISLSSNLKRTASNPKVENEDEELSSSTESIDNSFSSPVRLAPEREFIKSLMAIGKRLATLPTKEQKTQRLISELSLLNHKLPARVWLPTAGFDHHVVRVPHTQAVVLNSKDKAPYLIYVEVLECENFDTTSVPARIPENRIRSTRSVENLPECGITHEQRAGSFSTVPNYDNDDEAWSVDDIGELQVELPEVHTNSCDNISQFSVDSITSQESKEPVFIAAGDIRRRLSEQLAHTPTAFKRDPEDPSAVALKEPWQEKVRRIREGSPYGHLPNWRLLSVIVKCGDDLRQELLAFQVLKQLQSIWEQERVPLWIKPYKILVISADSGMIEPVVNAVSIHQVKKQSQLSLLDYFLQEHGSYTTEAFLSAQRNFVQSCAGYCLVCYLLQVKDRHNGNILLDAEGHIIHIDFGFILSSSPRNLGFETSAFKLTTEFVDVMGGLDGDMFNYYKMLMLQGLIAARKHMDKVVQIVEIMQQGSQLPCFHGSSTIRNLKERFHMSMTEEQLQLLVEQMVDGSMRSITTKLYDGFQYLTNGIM

PI 3-kinase gamma = PI 3-kinase gamma (Homo sapiens, UniProt P48736); assay: TR-FRET Adapta assay, assay E; assay type: biochemical; settings: read-out: Assay E PI3Kγ IC50
Chain of PI 3-kinase gamma (P48736 whole entry): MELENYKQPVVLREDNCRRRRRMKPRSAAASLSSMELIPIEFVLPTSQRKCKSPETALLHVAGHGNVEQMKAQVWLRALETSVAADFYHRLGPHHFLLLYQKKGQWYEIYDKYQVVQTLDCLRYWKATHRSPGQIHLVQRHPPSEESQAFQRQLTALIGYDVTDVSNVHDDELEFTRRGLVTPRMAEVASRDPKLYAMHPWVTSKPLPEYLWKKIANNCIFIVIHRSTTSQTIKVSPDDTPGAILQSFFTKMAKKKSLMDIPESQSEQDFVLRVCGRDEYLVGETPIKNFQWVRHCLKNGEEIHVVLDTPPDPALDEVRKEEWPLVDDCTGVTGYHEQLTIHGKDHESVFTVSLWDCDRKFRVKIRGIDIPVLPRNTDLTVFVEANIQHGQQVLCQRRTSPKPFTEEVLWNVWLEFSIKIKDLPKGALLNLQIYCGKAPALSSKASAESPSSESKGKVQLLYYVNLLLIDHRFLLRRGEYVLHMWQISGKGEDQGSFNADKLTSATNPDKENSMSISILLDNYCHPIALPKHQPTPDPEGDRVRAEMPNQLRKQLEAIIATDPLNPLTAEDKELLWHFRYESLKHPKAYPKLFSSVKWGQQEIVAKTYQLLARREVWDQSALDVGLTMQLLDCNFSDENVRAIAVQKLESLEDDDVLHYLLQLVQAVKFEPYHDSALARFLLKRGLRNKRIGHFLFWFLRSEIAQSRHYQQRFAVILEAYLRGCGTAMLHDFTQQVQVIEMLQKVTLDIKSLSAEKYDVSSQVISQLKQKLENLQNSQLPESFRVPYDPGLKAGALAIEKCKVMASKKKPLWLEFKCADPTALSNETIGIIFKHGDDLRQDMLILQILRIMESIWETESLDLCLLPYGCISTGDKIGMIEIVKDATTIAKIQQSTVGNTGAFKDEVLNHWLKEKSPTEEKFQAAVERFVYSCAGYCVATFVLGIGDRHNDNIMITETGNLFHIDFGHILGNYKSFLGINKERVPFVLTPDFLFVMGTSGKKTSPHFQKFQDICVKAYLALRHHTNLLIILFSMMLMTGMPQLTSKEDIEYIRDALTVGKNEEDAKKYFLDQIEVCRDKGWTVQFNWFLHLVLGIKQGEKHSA

mTOR = mTOR (Homo sapiens, UniProt P42345); assay: Lanthascreen kinase binding assay, assay G; settings: read-out: Assay G mTOR IC50
Protocol: Lanthascreen™ Kinase Binding Assay for mTOR (G)
Binding of an inhibitor to the kinase competes for binding with the tracer, resulting in a loss of FRET.
50 nL of compound dilutions were dispensed onto white 384-well small volume polystyrene plate.

PI 3-kinase delta = PI 3-kinase delta (Homo sapiens, UniProt O00329); assay: TR-FRET Adapta assay, assay F
Chain of PI 3-kinase delta (O00329 whole entry): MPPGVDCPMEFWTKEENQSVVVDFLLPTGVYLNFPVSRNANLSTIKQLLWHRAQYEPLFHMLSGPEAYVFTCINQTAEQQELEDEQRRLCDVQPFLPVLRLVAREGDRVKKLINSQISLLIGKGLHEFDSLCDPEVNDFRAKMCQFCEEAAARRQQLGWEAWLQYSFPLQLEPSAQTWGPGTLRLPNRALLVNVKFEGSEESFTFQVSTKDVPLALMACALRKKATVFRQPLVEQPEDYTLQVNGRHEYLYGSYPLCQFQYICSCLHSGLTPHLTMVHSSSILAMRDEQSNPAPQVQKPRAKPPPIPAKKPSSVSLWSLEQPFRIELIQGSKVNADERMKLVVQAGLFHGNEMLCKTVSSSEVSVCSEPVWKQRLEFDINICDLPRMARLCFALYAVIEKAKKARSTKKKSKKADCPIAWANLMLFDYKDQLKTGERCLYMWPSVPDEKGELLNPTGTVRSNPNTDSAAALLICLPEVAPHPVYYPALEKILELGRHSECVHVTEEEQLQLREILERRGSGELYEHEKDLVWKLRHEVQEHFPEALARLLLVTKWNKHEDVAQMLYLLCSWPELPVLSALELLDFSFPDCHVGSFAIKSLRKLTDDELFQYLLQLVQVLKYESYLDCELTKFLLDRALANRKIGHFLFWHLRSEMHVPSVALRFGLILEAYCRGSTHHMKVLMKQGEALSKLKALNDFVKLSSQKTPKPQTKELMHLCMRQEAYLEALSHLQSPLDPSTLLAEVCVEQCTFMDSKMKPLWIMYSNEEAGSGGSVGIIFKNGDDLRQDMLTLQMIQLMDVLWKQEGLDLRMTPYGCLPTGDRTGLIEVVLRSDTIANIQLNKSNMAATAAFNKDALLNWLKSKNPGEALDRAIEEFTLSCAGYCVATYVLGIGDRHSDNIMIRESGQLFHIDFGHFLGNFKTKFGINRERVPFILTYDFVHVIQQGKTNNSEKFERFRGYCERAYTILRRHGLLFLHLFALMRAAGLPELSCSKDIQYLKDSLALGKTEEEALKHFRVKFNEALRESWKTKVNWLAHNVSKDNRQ
Chain of PI 3-kinase delta (P27986 461-568 partner): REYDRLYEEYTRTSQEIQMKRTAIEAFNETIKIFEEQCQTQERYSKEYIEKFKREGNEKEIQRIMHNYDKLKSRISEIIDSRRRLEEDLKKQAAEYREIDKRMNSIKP

[2] = rat liver microsomes, intrinsic clearance

Chain of PI 3-kinase alpha (P42336 whole entry): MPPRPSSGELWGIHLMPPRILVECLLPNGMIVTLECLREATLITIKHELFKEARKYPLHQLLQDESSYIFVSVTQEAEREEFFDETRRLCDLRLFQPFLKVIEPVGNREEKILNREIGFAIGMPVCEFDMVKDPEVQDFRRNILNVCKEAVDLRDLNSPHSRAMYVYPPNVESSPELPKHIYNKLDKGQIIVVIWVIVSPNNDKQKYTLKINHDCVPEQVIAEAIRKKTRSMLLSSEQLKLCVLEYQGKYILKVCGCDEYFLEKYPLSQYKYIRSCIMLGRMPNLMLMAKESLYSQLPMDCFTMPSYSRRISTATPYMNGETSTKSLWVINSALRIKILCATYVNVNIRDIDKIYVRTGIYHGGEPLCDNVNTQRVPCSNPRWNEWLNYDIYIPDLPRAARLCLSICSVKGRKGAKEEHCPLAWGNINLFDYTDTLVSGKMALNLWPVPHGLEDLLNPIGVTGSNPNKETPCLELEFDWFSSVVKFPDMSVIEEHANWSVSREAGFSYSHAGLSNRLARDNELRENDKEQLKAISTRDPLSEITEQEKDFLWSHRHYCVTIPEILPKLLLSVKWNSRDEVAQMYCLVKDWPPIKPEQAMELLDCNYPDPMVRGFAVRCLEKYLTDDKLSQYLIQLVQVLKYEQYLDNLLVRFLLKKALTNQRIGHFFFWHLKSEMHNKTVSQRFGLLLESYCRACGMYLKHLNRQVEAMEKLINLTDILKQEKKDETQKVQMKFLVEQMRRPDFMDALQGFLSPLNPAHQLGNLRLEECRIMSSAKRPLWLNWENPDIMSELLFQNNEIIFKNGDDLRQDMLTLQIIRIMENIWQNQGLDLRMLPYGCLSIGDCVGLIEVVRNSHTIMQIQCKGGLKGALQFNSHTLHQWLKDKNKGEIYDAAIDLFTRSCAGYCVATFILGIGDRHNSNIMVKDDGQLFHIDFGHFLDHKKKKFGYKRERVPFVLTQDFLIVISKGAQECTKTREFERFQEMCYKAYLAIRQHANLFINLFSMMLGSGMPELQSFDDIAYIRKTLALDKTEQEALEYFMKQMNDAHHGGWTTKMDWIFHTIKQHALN

SMILES	Assay M RLM CI(int) [1, 2] [µL/min/mg]	Assay M RLM CI(int) ([1]; intrinsic clearance in rat liver microsomes) [µL/min/mg]	IC50 (PI 3-kinase alpha) [nM]	IC50 (PI 3-kinase beta) [nM]	IC50 (Vps34) [nM]	IC50 (PI 4-kinase beta) [nM]	IC50 (PI 3-kinase gamma) [nM]	IC50 (mTOR) [nM]	IC50 (PI 3-kinase delta; read-out: Assay F PI3Kδ IC50) [nM]	IC50 (PI 3-kinase delta) [nM]
Cc1ccc(S(=O)(=O)N2CCOCC2)cc1-c1cnc(N)c(C(=O)c2cccnc2)c1 [(i), reference compound]	47									
CN1CCN(S(=O)(=O)c2cccc(-c3cnc(N)c(C(=O)c4cccnc4)c3)c2)CC1 [(ii), reference compound]	233									
CC(C)(C)c1ccc(C(=O)c2cc(-c3cccc(S(=O)(=O)NC4CC4)c3)cnc2N)cc1 [(iii), reference compound]	219									
COCCNS(=O)(=O)c1cccc(-c2cnc(N)c(C(=O)c3cccnc3)n2)c1 [(iv), reference compound]	465									
Cc1ccc(S(=O)(=O)N2CCOCC2)cc1-c1cnc(N)c(C(=O)c2cccnc2)n1 [(ix), reference compound]	267									
Nc1ncc(-c2ccc(Cl)c(S(=O)(=O)N[C@H]3CC[C@H](O)CC3)c2)nc1C(=O)c1cccnc1 [(v), reference compound]	173									
COCCNS(=O)(=O)c1cc(-c2cnc(N)c(C(=O)c3cccnc3)n2)ccc1Cl [(vi), reference compound]	630									
COCCNS(=O)(=O)c1cc(-c2cnc(N)c(C(=O)c3cccnc3)n2)c(F)cc1F [(vii), reference compound]	283									
CNC(=O)c1nc(-c2ccc(Cl)c(S(=O)(=O)Nc3cccc(F)c3C)c2)cnc1N [(xi), reference compound]	271									
Cc1nc(N)ncc1-c1ccc(Cl)c(S(=O)(=O)NCCO)c1 [(xii), reference compound]	9									
Cc1ncc(-c2nc(-c3cc(S(=O)(=O)N[C@@H]4CCOC4)ccc3C)cnc2N)s1 [Example 45.7a, (R)-3-(5-Amino-6-(2-methylthiazol-5-yl)pyrazin-2-yl)-4-methyl-N-(tetrahydrofuran-3-yl)benzenesulfonamide or (5)-3-(5-Amino-6-(2-methylthiazol-5-yl)pyrazin-2-yl)-4-methyl-N-(tetrahydrofuran-3-yl)benzenesulfonamide]		151								
CCN(CC)CCCNS(=O)(=O)c1ccc(C)c(-c2cnc(N)c(-c3ccnc(C)c3)n2)c1 [Example 129.23, 3-(5-amino-6-(2-methylpyridin-4-yl)pyrazin-2-yl)-N-(3-(diethylamino)propyl)-4-methylbenzenesulfonamide]			2800	3300	> 9100	> 9100	380	> 9100	1900	
Cc1cc(-c2nc(-c3cc(S(=O)(=O)NCCN(C)C)ccc3C)cnc2N)ccn1 [Example 129.26, 3-(5-amino-6-(2-methylpyridin-4-yl)pyrazin-2-yl)-N-(2-(dimethylamino)ethyl)-4-methylbenzenesulfonamide]			1600	1700	> 9100	> 9100	590	> 9100	1600	
Cc1cc(-c2nc(-c3cc(S(=O)(=O)NCCN4CCCC4)ccc3C)cnc2N)ccn1 [Example 129.27, 3-(5-amino-6-(2-methylpyridin-4-yl)pyrazin-2-yl)-4-methyl-N-(2-(pyrrolidin-1-yl)ethyl)benzenesulfonamide]			9000	> 9100	> 9100	> 9100	760	> 9100	2100	
Cc1cc(-c2nc(-c3cc(S(=O)(=O)NCC4CCN(C)C4)ccc3C)cnc2N)ccn1 (centres unmarked) [Example 129.30, 3-(5-amino-6-(2-methylpyridin-4-yl)pyrazin-2-yl)-4-methyl-N-((1-methylpyrrolidin-3-yl)methyl)benzenesulfonamide]			5400	> 9100	> 9100	> 9100	41	> 9100	1200	
Cc1cc(-c2nc(-c3cc(S(=O)(=O)NCC4(C(N)=O)CCOCC4)ccc3C)cnc2N)ccn1 [Example 129.31, 4-((3-(5-amino-6-(2-methylpyridin-4-yl)pyrazin-2-yl)-4-methylphenylsulfonamido)methyl)tetrahydro-2H-pyran-4-carboxamide]			290	1800	> 9100	6700	120	> 9100	800	
CNCCNS(=O)(=O)c1ccc(C)c(-c2cnc(N)c(-c3ccnc(C)c3)n2)c1 [Example 129.33, 3-(5-amino-6-(2-methylpyridin-4-yl)pyrazin-2-yl)-4-methyl-N-(2-(methylamino)ethyl)benzenesulfonamide]			2300	> 9100	> 9100	> 9100	260	> 9100	2000	
Cc1cc(-c2nc(-c3cc(S(=O)(=O)NCCN)ccc3C)cnc2N)ccn1 [Example 129.34, 3-(5-amino-6-(2-methylpyridin-4-yl)pyrazin-2-yl)-N-(2-aminoethyl)-4-methylbenzenesulfonamide]			700	> 9100	> 9100	> 9100	110	> 9100	1200	
Cc1cc(-c2nc(-c3cc(S(=O)(=O)N4CC5(CNC5)C4)ccc3C)cnc2N)ccn1 [Example 129.37, 5-(5-(2,6-diazaspiro[3.3]heptan-2-ylsulfonyl)-2-methylphenyl)-3-(2-methylpyridin-4-yl)pyrazin-2-amine]			1300	> 9100	> 9100	8300	540	> 9100	2800	
Cc1cc(-c2nc(-c3cc(S(=O)(=O)N[C@H]4CCC[C@@H]4N)ccc3C)cnc2N)ccn1 [Example 129.38, 3-(5-amino-6-(2-methylpyridin-4-yl)pyrazin-2-yl)-N-((1S,2S)-2-aminocyclopentyl)-4-methylbenzenesulfonamide]			1600	2700	> 9100	> 9100	820	> 9100		4500
Cc1cc(-c2nc(-c3cc(S(=O)(=O)N4CC[C@@H](N)C4)ccc3C)cnc2N)ccn1 [Example 129.40, (R)-5-(5-(3-aminopyrrolidin-1-ylsulfonyl)-2-methylphenyl)-3-(2-methylpyridin-4-yl)pyrazin-2-amine]			670	6400	> 9100	> 9100	1100	> 9100	4000	
Cc1cc(-c2nc(-c3cc(S(=O)(=O)NC[C@H]4CCC[C@@H](CN)C4)ccc3C)cnc2N)ccn1 [Example 129.42, 3-(5-amino-6-(2-methylpyridin-4-yl)pyrazin-2-yl)-N-(((1S,3R)-3-(aminomethyl)cyclohexyl)methyl)-4-methylbenzenesulfonamide]			2000	6600	> 9100	> 9100	150	> 9100	1700	
Cc1cc(-c2nc(-c3cc(S(=O)(=O)N[C@H]4CC[C@H](N)CC4)ccc3C)cnc2N)ccn1 [Example 129.43, 3-(5-amino-6-(2-methylpyridin-4-yl)pyrazin-2-yl)-N-((1r,4r)-4-aminocyclohexyl)-4-methylbenzenesulfonamide]			3000	5700	> 9100	> 9100	1000	> 9100	2300	
